# Test results as given in US9403877B2, “Peptide agents for cancer therapy” (INTER-K PTY LIMITED, priority 2012, dated 2016).
# Entries after “also recorded” stand apart in the source; their conditions may differ. Where no end group is shown, it is not given here. The star is where a group is joined. FITC = O=C1OC2(c3ccc(O)cc3Oc3cc(O)ccc32)c2ccc(NC(=S)*)cc21
# Assays:
# [1] = test system: DU145 prostate cancer cells; test: Modified MTT assay, DU145, 5% serum, 48 hours; type: cell-based, human; conditions: for Growth inhibition of DU145 prostate cancer cells: 5% serum, 48 hours, concentrations of 0.5 μM or greater
# Method: (§1) Cells in logarithmic growth were transferred to 96-well plates in 100 μl of serum-containing medium at a density of 4000 cells per well. After 24 hours the previously added serum-containing medium was removed and 200 μl serum free medium (SFM) with or without peptide was added to each of triplicate wells. Drug exposure experiments were carried out on cell lines using varying concentrations of peptides (50 nM-100 μM) and cells were exposed to peptides for 72 hours in serum-free culture medium. Growth-inhibitory effects were evaluated by MTT (3-[4,5-dimethylthiazol-2-yl]2,5-diphenyl-tetrazolium bromide) cell growth assay and absorbance was read at 540 nm. Growth of control cells was exponential during the whole incubation period. Mean surviving fractions±SEM values (minimum of 3 separate experiments) were determined for each peptide/cisplatin concentration.
# (§2) The growth inhibitory activity of various concentrations of the 10 RVK peptide (RVKVKVVVVR) (SEQ ID No. 24) with an 8 mer polyarginine sequence coupled to its C-terminal end (i.e., RVKVKVVVVRRRRRRRRR (SEQ ID No. 26), referred to herein as 10 RVK Arg) on MDA468 breast cancer cells was assessed by a modified form of the MTT assay described in Example 1.2 in which 3000 cells per well were cultured for 48 hours in culture medium containing 5% serum. For the negative control, an 8 mer polyargine peptide (8 Arg) was used. The results shown in FIG. 10 are the average of 3 replicate wells for each dosage.
# (§3) The growth inhibitory activity of various concentrations of the 10 RVK Arg peptide on MDA468 breast cancer and DU145 prostate cancer cells was assessed by MTT assay involving incubating the cells in 5% serum containing medium for 48 hours as described in Example 2. As a comparison, inhibition of the growth of the cells by the 10 RVK peptide with a 7 mer polyarginine sequence coupled to its C-terminal end (i.e., RVKVKVVVVRRRRRRRR (SEQ ID No. 27), referred to herein as 10 RVK 7 Arg) and the 10 RVK peptide with an 8 mer polyargine sequence coupled to its N-terminal end (i.e., RRRRRRRRRVKVKVVVVR (SEQ ID No. 28), referred to herein as Arg 10 RVK) were also assessed. The results for inhibition of the breast cancer cells are shown in FIG. 11 while the results for treatment of the prostate cancer cells are shown in FIG. 12.
# [2] = test system: MDA468 breast cancer cells; test: Modified MTT assay, MDA468, 5% serum, 48 hours; type: cell-based, human; conditions: for Growth inhibition of MDA468 breast cancer cells: concentrations of 0.5 μM or greater
# Method: as §1, §2, §3
# [3] = test system: HT29 colon cancer cells; test: In vitro growth inhibition MTT assay, HT29; type: cell-based, human; conditions: for Inhibition of HT29 cell growth/proliferation (MTT), in words: serum-free medium, 72 hours, peptide 50 nM-100 μM, compared with RSKAKNPLYR or 10Ala
# Method: (§4) The human colon cancer cell line HT29, ovarian cancer cell line A2780, breast cancer cell lines MCF-7 and MDA468, and a prostate cancer cell line (DU145) were used for in vitro studies. The cell lines were cultured at 37° C., under air containing 5% CO2 and passaged regularly for optimal growth. Cells were maintained in DMEM medium containing 10% fetal bovine serum. All culture medium preparations were further supplemented with penicillin/streptomycin (100 μg/ml), and
# (§5) 1.2 In Vitro Growth Inhibition MTT Assay
# Cells in logarithmic growth were transferred to 96-well plates in 100 μl of serum-containing medium at a density of 4000 cells per well. […] […] Growth-inhibitory effects were evaluated by MTT (3-[4,5-dimethylthiazol-2-yl]2,5-diphenyl-tetrazolium bromide) cell growth assay and absorbance was read at 540 nm. Growth of control cells was exponential during the whole incubation period. Mean surviving fractions±SEM values (minimum of 3 separate experiments) were determined for each peptide/cisplatin concentration.
# [4] = test system: breast (MCF-7) cancer cell line; test: In vitro growth inhibition MTT assay, MCF-7, serum-free; type: cell-based, human; conditions: 72 hours
# Method: as §4, §5, §1
# [5] = test system: ovarian (A2780) cancer cell line; test: In vitro growth inhibition MTT assay, A2780, serum-free; type: cell-based, human; conditions: 72 hours
# Method: as §4, §5, §1
# [6] = test system: prostate (DU145) cancer cell line; test: In vitro growth inhibition MTT assay, DU145, serum-free; type: cell-based, human; conditions: 72 hours
# Method: as §4, §5, §1
# [7] = test system: colon cancer cells; conditions: PCT/AU2010/000203; cited from earlier work
# [8] = test system: HT29 colon cancer cells; conditions: in vitro in the presence of serum, Agrez et al., 2011; cited from earlier work
# [9] = test system: HT29 cells; test: Uptake of FITC-labelled peptide by confocal microscopy; type: cell-based, human; conditions: serum-free culture, after 24 hours, compared to FITC alone
# Method: The ability of 10 Ala to cross the plasma membrane of HT29 cells was assessed by means of confocal microscopy of cells exposed to 10Ala conjugated to fluorosceine isothiocyanate (FITC) under serum-free culture conditions. The peptide used in this study comprised the sequence KRAKAKAAAAR (SEQ ID No. 25) (identified as FITC-K10(4)Ala) with an extra lysine residue at the amino terminus (to which the FITC label is attached). […] A microphotograph showing localization of the FITC-labelled peptide to the cytoplasm of cells compared to cells treated with FITC alone is shown in FIG. 9.
substance,measurement,setting,value
RVKVKVVVVRRRRRRRRR (8 mer polyarginine sequence couple to the C-terminal end of 10 RVK peptide) [10 RVK Arg],Growth inhibitory activity on DU145 compared to 10 RVK with penetratin coupled to its N-terminal,"[1]; 10 μM to 50 μM, results not shown",enhanced cell growth inhibitory activity
same,Growth inhibition of DU145 prostate cancer cells,[1],markedly inhibited growth
same,Growth inhibitory activity on MDA468 compared to 10 RVK with penetratin coupled to its N-terminal,"[2]; 5 μM to 10 μM, results not shown",enhanced cell growth inhibitory activity
same,Growth inhibition of MDA468 cells,"[2]; 5% serum, 48 hours, concentration 5 μM to 50 μM",totally inhibited growth
same,Growth inhibition of MDA468 breast cancer cells,"[2]; 5% serum, 48 hours",markedly inhibited growth
"RSKAKNALYR (short variant of sequence 2, scrambled)","Inhibition of HT29 cell growth/proliferation (MTT), in words",[3],not seen
RKRK (A scrambled version of the charged residues RKKR),"Inhibition of HT29 cell growth/proliferation (MTT), in words",[3],significantly less effective at inhibiting growth of the cells
RKKR (Charged residues for growth inhibitory effect),"Inhibition of HT29 cell growth/proliferation (MTT), in words",[3],not sufficient to inhibit cancer cell proliferation in vitro to the same degree
RAKARAAAAK (10Ala peptide wherein the position of one or both arginine and lysine residues have been inverted),"Inhibition of HT29 cell growth/proliferation (MTT), in words",[3],significantly reduced the ability of the peptides to inhibit cell growth
RSKAKR (SHORT VARIANT OF THE PEPTIDE FROM SEQUENCE 2),"Inhibition of HT29 cell growth/proliferation (MTT), in words",[3],failed to inhibit proliferation
RAAKAARAAK (Scrambled peptide with Alanine in the place of all non-charged residues in peptide of sequence 2.) [scrambled alanine-substituted peptide],"Inhibition of HT29 cell growth/proliferation (MTT), in words",[3],ineffective
RAKAK (shorter variant of 10Ala),"Inhibition of HT29 cell growth/proliferation (MTT), in words",[3],minimal effect
RAKAKAAAR (short variant of 10Ala),"Inhibition of HT29 cell growth/proliferation (MTT), in words",[3],minimal effect; also recorded: significantly less effective at inhibiting growth
RAKAKAAAAR (B6 derived peptide),Inhibition of MCF-7 cell growth,[4],equally effective
same,Inhibition of A2780 cell growth,[5],equally effective
same,Inhibition of DU145 cell growth,[6],equally effective
same,Growth inhibitory effect in serum-containing medium,"[3]; serum-containing medium, data not shown",adversely affected
same,"Inhibition of HT29 cell growth/proliferation (MTT), in words",[3],ability of both peptides to inhibit cell growth was similar
same,"Inhibition of HT29 cell growth/proliferation (MTT), in words",[3]; listed as 10Ala,significantly more effective at inhibiting cell proliferation
RSRARNPLYR (10 mer peptide from B5 integrin cytoplasmic domain) [10 mer peptide derived from the β5 integrin cytoplasmic domain],Inhibition of proliferation of colon cancer cells in vitro (previously reported),[7],effective at inhibiting proliferation
RAKAKAAAAAR (variant peptide of 10Ala having 5 alanine residues between the lysine and the C-terminal arginine),"Inhibition of HT29 cell growth/proliferation (MTT), in words",[3],significantly less effective at inhibiting growth
RSKAKNPLYR (Non naturally occurring peptide derived from the B6 binding sequence),Growth inhibitory effect in the presence of serum (previously shown),[8],adversely affected
FITC-KRAKAKAAAAR ({FITC}-KRAKAKAAAAR) [FITC-K10(4)Ala],Internalization / localization of FITC-labelled peptide in cells,[9],cytoplasmic localization of peptide
RSKAKNPLAR (A short variant peptide of sequence 2),"Inhibition of HT29 cell growth/proliferation (MTT), in words",[3],not seen
KEKLKNPLFK (10-mer peptide from B2 integrin cytoplasmic domains) [10 mer peptide derived from the β2 integrin cytoplasmic domain],Inhibition of proliferation of colon cancer cells in vitro (previously reported),[7],effective at inhibiting proliferation
KARARAAAAK (10Ala peptide in which the positions of one or both arginine and lysine residues have been inverted),"Inhibition of HT29 cell growth/proliferation (MTT), in words",[3],significantly reduced the ability of the peptides to inhibit cell growth
RARAKNPLYK (10 mer peptide from B3 integrin cytoplasmic domain) [10 mer peptide derived from the β3 integrin cytoplasmic domain],Inhibition of proliferation of colon cancer cells in vitro (previously reported),[7],effective at inhibiting proliferation
RVKVKVVVVRRRRRRRR (10RVK peptide with a 7 mer polyarginine sequence coupled to its C-terminal end) [10 RVK 7 Arg],Growth inhibition of DU145 prostate cancer cells,[1],markedly inhibited growth
same,Growth inhibition of MDA468 breast cancer cells,"[2]; 5% serum, 48 hours",markedly inhibited growth
RRRRRRRRRVKVKVVVVR (10 RVK peptide with an 8 mer polyargine sequence coupled ot its N-terminal end) [Arg 10 RVK],Growth inhibition of DU145 prostate cancer cells,[1],markedly inhibited growth
same,Growth inhibition of MDA468 breast cancer cells,"[2]; 5% serum, 48 hours",markedly inhibited growth
